The results in this text go back to patent US12391737B2, “Soluble NPY2 receptor agonists” (Boehringer Ingelheim International GmbH, priority 2020, dated 2025).

Series [1] has as its target T1, Human Neuropeptide Y2 Receptor (Homo sapiens, UniProt P49146).
T1 construct: purchased CHEMICON HTS066M
T1 sequence (P49146 1-381): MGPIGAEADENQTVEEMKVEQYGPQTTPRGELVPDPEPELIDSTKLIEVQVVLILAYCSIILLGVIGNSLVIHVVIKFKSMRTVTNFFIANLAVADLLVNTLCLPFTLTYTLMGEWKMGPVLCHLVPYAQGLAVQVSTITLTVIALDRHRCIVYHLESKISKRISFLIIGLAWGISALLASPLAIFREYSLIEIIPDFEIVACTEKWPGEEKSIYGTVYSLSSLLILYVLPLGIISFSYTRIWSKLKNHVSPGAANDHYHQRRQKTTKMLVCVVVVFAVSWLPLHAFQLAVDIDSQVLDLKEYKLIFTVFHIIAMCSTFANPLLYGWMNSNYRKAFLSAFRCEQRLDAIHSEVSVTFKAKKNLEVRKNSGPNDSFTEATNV
Nature of the series: Radioligand binding competition assay (RLB). The note with it: Table 3, 125I-PYY(1-36) competition; read-out: Ki. The method, boiled down:
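Displacement of radioligand is measured after 2 h at room temperature with receptor membranes in Mg2+/Ca2+ HEPES buffer, pH 7.4. Filter-bound radioactivity is counted and IC50 obtained from curve fitting.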

The next series can be described thus: Solubility determination. To be noted: for Sol6: pH 6; for Sol7: pH 7. Put shortly:
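Sample: TFA-salt peptide at 10 mg/ml target in 0.1 M Na diphosphate, pH 6.4 or 7.0, shaken 2 h RT, filtered, diluted to 1 mg/ml.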

The Ki is the equilibrium dissociation constant of an inhibitor or competing ligand from its target. For the compound `CC(C)CC(=O)N[C@@H](C)C(=O)N1CCC[C@H]1C(=O)N[C@@H](C)C(=O)N[C@@H](CCCCNC(=O)CCCCCNC(=O)CC[C@H](NC(=O)CCCCCCCCCCCCCCCCC(=O)O)C(=O)O)C(=O)N1CCC[C@H]1C(=O)N[C@@H](CCC(=O)O)C(=O)N[C@@H](CCC(=O)O)C(=O)N[C@@H](CC(=O)O)C(=O)N[C@@H](C)C(=O)N[C@@H](CO)C(=O)N1CCC[C@H]1C(=O)N[C@@H](CCC(=O)O)C(=O)N[C@@H](CCC(=O)O)C(=O)N[C@@H](CC(C)C)C(=O)N[C@@H](CCC(N)=O)C(=O)N[C@@H](CCCNC(=N)N)C(=O)N[C@@H](Cc1ccc(O)cc1)C(=O)N[C@@H](CCC(N)=O)C(=O)N[C@H](C(=O)N[C@@H](CO)C(=O)N[C@@H](CC(C)C)C(=O)N[C@@H](CCCNC(=N)N)C(=O)N[C@@H](Cc1c[nH]cn1)C(=O)N[C@@H](Cc1ccc(O)cc1)C(=O)N[C@@H](Cc1ccc(O)cc1)C(=O)N[C@@H](CC(N)=O)C(=O)N[C@@H](Cc1c[nH]c2ccccc12)C(=O)N[C@@H](CC(C)C)C(=O)N[C@H](C(=O)N[C@@H](CCCNC(=N)N)C(=O)N[C@@H](CCC(N)=O)C(=O)N[C@@H](CCCNC(=N)N)C(=O)N[C@@H](Cc1ccc(O)cc1)C(N)=O)[C@@H](C)O)C(C)C` [Compound 20, N{alpha-4}-(3-methylbutanoyl)-N{epsilon-7}-(6-[(4S)-4-carboxy-4-(17-carboxyheptadecanamido)butanamido]hexanoyl)[4A,6A,7K,9E,18Q,21Q,22V,28Y,30W,31L]-hPYY(4-36)], the Ki in series [1] is 2.41 nM. In “Solubility determination”, the “Sol6” value was greater than 10.0 mg/mL and the “Sol7” value came out at 10.0 mg/mL.

Regarding `CC(C)CC(=O)N[C@@H](C)C(=O)N1CCC[C@H]1C(=O)N[C@@H](CCC(=O)O)C(=O)N[C@@H](CCCCNC(=O)CCCCCNC(=O)CC[C@H](NC(=O)CCCCCCCCCCCCCCCCC(=O)O)C(=O)O)C(=O)N1CCC[C@H]1C(=O)N[C@@H](CCC(=O)O)C(=O)N[C@@H](CCC(=O)O)C(=O)N[C@@H](CC(=O)O)C(=O)N[C@@H](CO)C(=O)N[C@@H](CO)C(=O)N1CCC[C@H]1C(=O)N[C@@H](CCC(=O)O)C(=O)N[C@@H](CCC(=O)O)C(=O)N[C@@H](CC(C)C)C(=O)N[C@@H](CCC(N)=O)C(=O)N[C@@H](CCCNC(=N)N)C(=O)N[C@@H](Cc1ccc(O)cc1)C(=O)N[C@@H](Cc1ccc(O)cc1)C(=O)N[C@H](C(=O)N[C@@H](C)C(=O)N[C@@H](CC(C)C)C(=O)N[C@@H](CCCNC(=N)N)C(=O)N[C@@H](Cc1c[nH]cn1)C(=O)N[C@@H](Cc1ccc(O)cc1)C(=O)N[C@@H](Cc1ccc(O)cc1)C(=O)N[C@@H](CC(N)=O)C(=O)N[C@@H](Cc1c[nH]c2ccccc12)C(=O)N[C@@H](CC(C)C)C(=O)N[C@H](C(=O)N[C@@H](CCCNC(=N)N)C(=O)N[C@@H](CCC(N)=O)C(=O)N[C@@H](CCCNC(=N)N)C(=O)N[C@@H](Cc1ccc(O)cc1)C(N)=O)[C@@H](C)O)C(C)C` [Compound 151, N{alpha-4}-(3-methylbutanoyl)-N{epsilon-7}-(6-[(4S)-4-carboxy-4-(17-carboxyheptadecanamido)butanamido]hexanoyl)-[4A,7K,9E,12S,18Q,22V,23A,28Y,30W,31L]-hPYY(4-36)], the Ki in series [1] worked out at 1.68 nM. In addition, in the series “Solubility determination”, the “Sol6” value is 8.2 mg/mL and the “Sol7” value came out at 9.7 mg/mL.

For the compound `CC(C)CC(=O)N[C@@H](C)C(=O)N1CCC[C@H]1C(=O)N[C@@H](C)C(=O)N[C@@H](CCCCNC(=O)CCCCCNC(=O)CC[C@H](NC(=O)CCCCCCCCCCCCCCCCC(=O)O)C(=O)O)C(=O)N1CCC[C@H]1C(=O)N1CCC[C@H]1C(=O)N[C@@H](CCC(=O)O)C(=O)N[C@@H](CC(=O)O)C(=O)N[C@@H](C)C(=O)N[C@@H](CO)C(=O)N1CCC[C@H]1C(=O)N[C@@H](CCC(=O)O)C(=O)N[C@@H](CCC(=O)O)C(=O)N[C@@H](CC(C)C)C(=O)N[C@@H](CCC(N)=O)C(=O)N[C@@H](CCCNC(=N)N)C(=O)N[C@@H](Cc1ccc(O)cc1)C(=O)N[C@@H](Cc1ccc(O)cc1)C(=O)N[C@H](C(=O)N[C@@H](CCC(=O)O)C(=O)N[C@@H](CC(C)C)C(=O)N[C@@H](CCCNC(=N)N)C(=O)N[C@@H](Cc1c[nH]cn1)C(=O)N[C@@H](Cc1ccc(O)cc1)C(=O)N[C@@H](Cc1ccc(O)cc1)C(=O)N[C@@H](CC(N)=O)C(=O)N[C@@H](Cc1c[nH]c2ccccc12)C(=O)N[C@@H](CC(C)C)C(=O)N[C@H](C(=O)N[C@@H](CCCNC(=N)N)C(=O)N[C@@H](CCC(N)=O)C(=O)N[C@@H](CCCNC(=N)N)C(=O)N[C@@H](Cc1ccc(O)cc1)C(N)=O)[C@@H](C)O)C(C)C` [Compound 62, N{alpha-4}-(3-methylbutanoyl)-N{epsilon-7}-(6-[(4S)-4-carboxy-4-(17-carboxyheptadecanamido)butanamido]hexanoyl)-[4A,6A,7K,9P,18Q,22V,23E,28Y,30W,31L]-hPYY(4-36)], the Ki in series [1] turned out to be 1.44 nM. For the same compound, in the series “Solubility determination”, the “Sol6” value was 8.8 mg/mL and the “Sol7” value was determined as 9.3 mg/mL.

Take `CC(C)CC(=O)N[C@@H](C)C(=O)N1CCC[C@H]1C(=O)N[C@@H](CCC(=O)O)C(=O)N[C@@H](CCCCNC(=O)CCCCCNC(=O)CC[C@H](NC(=O)CCCCCCCCCCCCCCCCC(=O)O)C(=O)O)C(=O)N1CCC[C@H]1C(=O)N[C@@H](CCC(=O)O)C(=O)N[C@@H](CCC(=O)O)C(=O)N[C@@H](CC(=O)O)C(=O)N[C@@H](C)C(=O)N[C@@H](C)C(=O)N1CCC[C@H]1C(=O)N[C@@H](CCC(=O)O)C(=O)N[C@@H](CCC(=O)O)C(=O)N[C@@H](CC(C)C)C(=O)N[C@@H](CCC(N)=O)C(=O)N[C@@H](CCCCN)C(=O)N[C@@H](Cc1ccc(O)cc1)C(=O)N[C@@H](Cc1ccc(O)cc1)C(=O)N[C@H](C(=O)N[C@@H](CO)C(=O)N[C@@H](CC(C)C)C(=O)N[C@@H](CCCNC(=N)N)C(=O)N[C@@H](Cc1c[nH]cn1)C(=O)N[C@@H](Cc1ccc(O)cc1)C(=O)N[C@@H](Cc1ccc(O)cc1)C(=O)N[C@@H](CC(N)=O)C(=O)N[C@@H](Cc1c[nH]c2ccccc12)C(=O)N[C@@H](CC(C)C)C(=O)N[C@H](C(=O)N[C@@H](CCCNC(=N)N)C(=O)N[C@@H](CCC(N)=O)C(=O)N[C@@H](CCCNC(=N)N)C(=O)N[C@@H](Cc1ccc(O)cc1)C(N)=O)[C@@H](C)O)C(C)C` [Compound 123, N{alpha-4}-(3-methylbutanoyl)-N{epsilon-7}-(6-[(4S)-4-carboxy-4-(17-carboxyheptadecanamido)butanamido]hexanoyl)-[4A,7K,9E,13A,18Q,19K,22V,28Y,30W,31L]-hPYY(4-36)]: in series [1], the Ki turned out to be 3.65 nM. Moreover, in “Solubility determination”, the “Sol6” value came out at 9.1 mg/mL and the “Sol7” value was determined as 8.7 mg/mL.

In the case of `CC(C)CC(=O)N[C@@H](C)C(=O)N1CCC[C@H]1C(=O)N[C@@H](C)C(=O)N[C@@H](CCCCNC(=O)CCCCCNC(=O)CC[C@H](NC(=O)CCCCCCCCCCCCCCCCC(=O)O)C(=O)O)C(=O)N1CCC[C@H]1C(=O)N[C@@H](CCC(=O)O)C(=O)N[C@@H](C)C(=O)N[C@@H](CC(=O)O)C(=O)N[C@@H](C)C(=O)N[C@@H](CCC(=O)O)C(=O)N1CCC[C@H]1C(=O)N[C@@H](CCC(=O)O)C(=O)N[C@@H](CCC(=O)O)C(=O)N[C@@H](CC(C)C)C(=O)N[C@@H](CCC(N)=O)C(=O)N[C@@H](CCCNC(=N)N)C(=O)N[C@@H](Cc1ccc(O)cc1)C(=O)N[C@@H](Cc1ccc(O)cc1)C(=O)N[C@H](C(=O)N[C@@H](C)C(=O)N[C@@H](CC(C)C)C(=O)N[C@@H](CCCNC(=N)N)C(=O)N[C@@H](Cc1c[nH]cn1)C(=O)N[C@@H](Cc1ccc(O)cc1)C(=O)N[C@@H](Cc1ccc(O)cc1)C(=O)N[C@@H](CC(N)=O)C(=O)N[C@@H](Cc1c[nH]c2ccccc12)C(=O)N[C@@H](CC(C)C)C(=O)N[C@H](C(=O)N[C@@H](CCCNC(=N)N)C(=O)N[C@@H](CCC(N)=O)C(=O)N[C@@H](CCCNC(=N)N)C(=O)N[C@@H](Cc1ccc(O)cc1)C(N)=O)[C@@H](C)O)C(C)C` [Compound 3, N{alpha-4}-(3-methylbutanoyl)-N{epsilon-7}-(6-[(4S)-4-carboxy-4-(17-carboxyheptadecanamido)butanamido]hexanoyl)[4A,6A,7K,9E,10A,13E,18Q,22V,23A,28Y,30W,31L]-hPYY(4-36)], in series [1], the Ki was found to be 1.57 nM. For the same compound, in “Solubility determination”, the “Sol6” value turned out to be 10.0 mg/mL and the “Sol7” value came to 10.0 mg/mL.
